Holding throughout (experiment): relative viability (nuclei count vs DMSO), 5 days (fraction); higher = more cells survive
Compound in the experiment “Vismodegib + Lapatinib”: CS(=O)(=O)c1ccc(C(=O)Nc2ccc(Cl)c(-c3ccccn3)c2)c(Cl)c1 [Vismodegib] + CS(=O)(=O)CCNCc1ccc(-c2ccc3ncnc(Nc4ccc(OCc5cccc(F)c5)c(Cl)c4)c3c2)o1 [Lapatinib] (partner 2 µM)
In a few lines:
(§1)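 Relative viability divides the nuclei count in treated wells by that in vehicle wells. Lung cancer cell lines were seeded in 1536-well plates, dosed by pin tool the next day, and fixed and stained after 5 days in one step with final 0.05% Triton X-100, 1% formaldehyde and 1 ug/ml Hoechst. Dosing was a single drug or a fixed anchor-drug dose plus five library-drug doses (not always all listed) in √10 steps, and values are medians of duplicate plates imaged at 4×.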

Compound in the experiment “VE-821 + Crizotinib”: CS(=O)(=O)c1ccc(-c2cnc(N)c(C(=O)Nc3ccccc3)n2)cc1 [VE-821] + C[C@@H](Oc1cc(-c2cnn(C3CCNCC3)c2)cnc1N)c1c(Cl)ccc(F)c1Cl [Crizotinib] (partner 1 µM)
The gist of the method: as §1

Compound in the experiment “Ruxolitinib + Linsitinib”: N#CC[C@H](C1CCCC1)n1cc(-c2ncnc3[nH]ccc23)cn1 [Ruxolitinib] + C[C@]1(O)C[C@@H](c2nc(-c3ccc4ccc(-c5ccccc5)nc4c3)c3c(N)nccn32)C1 [Linsitinib] (partner 1 µM)
The gist of the method: as §1

Compound in the experiment “Ruxolitinib + Tozasertib”: N#CC[C@H](C1CCCC1)n1cc(-c2ncnc3[nH]ccc23)cn1 [Ruxolitinib] + Cc1cc(Nc2cc(N3CCN(C)CC3)nc(Sc3ccc(NC(=O)C4CC4)cc3)n2)n[nH]1 [Tozasertib] (partner 0.1 µM)
The gist of the method:
as §1

Turning to 201T, the relative viability was found to be 1.05 with Vismodegib + Lapatinib (first compound 0.08 µM); 0.998 with Vismodegib + Lapatinib (first compound 0.253 µM); 0.946 in the experiment with Vismodegib + Lapatinib (first compound 0.8 µM); 1.04 in the experiment with Vismodegib + Lapatinib (first compound 2.53 µM); 1.02 with Vismodegib + Lapatinib (first compound 8 µM); 1.04 in the experiment with VE-821 + Crizotinib (first compound 0.08 µM). In addition, the relative viability was found to be 1.03 in the experiment with VE-821 + Crizotinib (first compound 0.253 µM); 1.02 with VE-821 + Crizotinib (first compound 0.8 µM); 1.08 with VE-821 + Crizotinib (first compound 2.53 µM); 0.979 in the experiment with VE-821 + Crizotinib (first compound 8 µM); 1.1 in the experiment with Ruxolitinib + Linsitinib (first compound 0.08 µM); 1.15 in the experiment with Ruxolitinib + Linsitinib (first compound 0.253 µM). Moreover, the relative viability is 1.19 in the experiment with Ruxolitinib + Linsitinib (first compound 0.8 µM); 1.21 with Ruxolitinib + Linsitinib (first compound 2.53 µM); 1.22 with Ruxolitinib + Linsitinib (first compound 8 µM); 1.11 in the experiment with Ruxolitinib + Tozasertib (first compound 0.08 µM); 1.19 with Ruxolitinib + Tozasertib (first compound 0.253 µM); 1.17 with Ruxolitinib + Tozasertib (first compound 0.8 µM). Besides, the relative viability in the experiment with Ruxolitinib + Tozasertib (first compound 2.53 µM) was determined as 1.21; with Ruxolitinib + Tozasertib (first compound 8 µM), 1.11.

Turning to A549, the relative viability with Vismodegib + Lapatinib (first compound 0.08 µM) is 1.02; with Vismodegib + Lapatinib (first compound 0.253 µM), 0.972; in the experiment with Vismodegib + Lapatinib (first compound 0.8 µM), 0.971; with Vismodegib + Lapatinib (first compound 2.53 µM), 0.979; with Vismodegib + Lapatinib (first compound 8 µM) it was 0.908; with VE-821 + Crizotinib (first compound 0.08 µM) it was 0.896. Further, the relative viability with VE-821 + Crizotinib (first compound 0.253 µM) stood at 0.656; with VE-821 + Crizotinib (first compound 0.8 µM), 0.607; with VE-821 + Crizotinib (first compound 2.53 µM) it was 0.689; with VE-821 + Crizotinib (first compound 8 µM), 0.271; with Ruxolitinib + Linsitinib (first compound 0.08 µM), 0.594; with Ruxolitinib + Linsitinib (first compound 0.253 µM), 0.576. The relative viability with Ruxolitinib + Linsitinib (first compound 0.8 µM) amounted to 0.896; in the experiment with Ruxolitinib + Linsitinib (first compound 2.53 µM), 0.558; with Ruxolitinib + Linsitinib (first compound 8 µM), 0.675.

As to A-427, the relative viability with Vismodegib + Lapatinib (first compound 0.08 µM) was 1.09; with Vismodegib + Lapatinib (first compound 0.253 µM), 1.04; with Vismodegib + Lapatinib (first compound 0.8 µM) it was 1.01; with Vismodegib + Lapatinib (first compound 2.53 µM), 0.977; with Vismodegib + Lapatinib (first compound 8 µM), 1.13; with VE-821 + Crizotinib (first compound 0.08 µM), 0.907. Moreover, the relative viability with VE-821 + Crizotinib (first compound 0.253 µM) was found to be 0.821; with VE-821 + Crizotinib (first compound 0.8 µM), 0.785; in the experiment with VE-821 + Crizotinib (first compound 2.53 µM), 0.811; with VE-821 + Crizotinib (first compound 8 µM) it was 0.384; in the experiment with Ruxolitinib + Linsitinib (first compound 0.08 µM), 1.14; in the experiment with Ruxolitinib + Linsitinib (first compound 0.253 µM), 1.11. For the same cell line, the relative viability with Ruxolitinib + Linsitinib (first compound 0.8 µM) was determined as 1.13; with Ruxolitinib + Linsitinib (first compound 2.53 µM), 0.961; in the experiment with Ruxolitinib + Linsitinib (first compound 8 µM), 0.922; in the experiment with Ruxolitinib + Tozasertib (first compound 0.08 µM), 0.232; with Ruxolitinib + Tozasertib (first compound 0.253 µM), 0.201; in the experiment with Ruxolitinib + Tozasertib (first compound 0.8 µM), 0.237. Besides, the figures for the relative viability with Ruxolitinib + Tozasertib (first compound 2.53 µM) and with Ruxolitinib + Tozasertib (first compound 8 µM) were 0.184 and 0.179, respectively.

Take ABC-1: the relative viability with Vismodegib + Lapatinib (first compound 0.253 µM) stood at 1.17; with Vismodegib + Lapatinib (first compound 0.8 µM), 1.14; in the experiment with Vismodegib + Lapatinib (first compound 2.53 µM), 1.02; with Vismodegib + Lapatinib (first compound 8 µM), 1.15; in the experiment with VE-821 + Crizotinib (first compound 0.08 µM) it was 1.18; with VE-821 + Crizotinib (first compound 0.253 µM), 1.1. Also, the relative viability in the experiment with VE-821 + Crizotinib (first compound 0.8 µM) was 0.904; with VE-821 + Crizotinib (first compound 2.53 µM) it was 0.777; with VE-821 + Crizotinib (first compound 8 µM) it was 0.58; in the experiment with Ruxolitinib + Linsitinib (first compound 0.08 µM), 0.983; with Ruxolitinib + Linsitinib (first compound 0.253 µM) it was 0.705; with Ruxolitinib + Linsitinib (first compound 0.8 µM), 0.865. The relative viability is 0.97 with Ruxolitinib + Linsitinib (first compound 2.53 µM); 0.871 with Ruxolitinib + Linsitinib (first compound 8 µM); 0.222 in the experiment with Ruxolitinib + Tozasertib (first compound 0.253 µM); 0.155 with Ruxolitinib + Tozasertib (first compound 0.8 µM); 0.202 with Ruxolitinib + Tozasertib (first compound 2.53 µM); 0.201 with Ruxolitinib + Tozasertib (first compound 8 µM).

As for BEN, the relative viability with Vismodegib + Lapatinib (first compound 0.08 µM) came out at 0.77; with Vismodegib + Lapatinib (first compound 0.253 µM) it was 0.718; with Vismodegib + Lapatinib (first compound 0.8 µM), 0.778; with Vismodegib + Lapatinib (first compound 2.53 µM), 0.844; with Vismodegib + Lapatinib (first compound 8 µM), 0.733; with VE-821 + Crizotinib (first compound 0.08 µM), 0.952. Besides, the relative viability with VE-821 + Crizotinib (first compound 0.253 µM) amounted to 0.847; with VE-821 + Crizotinib (first compound 0.8 µM), 0.688; with VE-821 + Crizotinib (first compound 2.53 µM), 0.835; with VE-821 + Crizotinib (first compound 8 µM) it was 0.796; with Ruxolitinib + Linsitinib (first compound 0.08 µM) it was 0.751; with Ruxolitinib + Linsitinib (first compound 0.253 µM), 0.887. The relative viability with Ruxolitinib + Linsitinib (first compound 0.8 µM) was determined as 1.15; with Ruxolitinib + Linsitinib (first compound 2.53 µM) it was 0.758; in the experiment with Ruxolitinib + Linsitinib (first compound 8 µM), 1.03; in the experiment with Ruxolitinib + Tozasertib (first compound 0.08 µM), 0.486; with Ruxolitinib + Tozasertib (first compound 0.253 µM), 0.503; with Ruxolitinib + Tozasertib (first compound 0.8 µM), 0.552. Moreover, the relative viability in the experiment with Ruxolitinib + Tozasertib (first compound 2.53 µM) was 0.537; with Ruxolitinib + Tozasertib (first compound 8 µM), 0.453.

In the case of CAL-12T, the relative viability in the experiment with Vismodegib + Lapatinib (first compound 0.253 µM) worked out at 0.723; in the experiment with Vismodegib + Lapatinib (first compound 0.8 µM), 0.578; with Vismodegib + Lapatinib (first compound 2.53 µM) it was 0.562; with Vismodegib + Lapatinib (first compound 8 µM), 0.75; with VE-821 + Crizotinib (first compound 0.08 µM), 0.798; with VE-821 + Crizotinib (first compound 0.253 µM) it was 0.674. The relative viability came to 0.537 with VE-821 + Crizotinib (first compound 0.8 µM); 0.369 with VE-821 + Crizotinib (first compound 2.53 µM); 0.316 in the experiment with VE-821 + Crizotinib (first compound 8 µM); 0.819 with Ruxolitinib + Linsitinib (first compound 0.08 µM); 0.744 with Ruxolitinib + Linsitinib (first compound 0.253 µM); 0.853 with Ruxolitinib + Linsitinib (first compound 0.8 µM). Also, the relative viability with Ruxolitinib + Linsitinib (first compound 2.53 µM) came out at 0.614; in the experiment with Ruxolitinib + Linsitinib (first compound 8 µM) it was 0.7; with Ruxolitinib + Tozasertib (first compound 0.08 µM), 0.348; in the experiment with Ruxolitinib + Tozasertib (first compound 0.253 µM) it was 0.412; with Ruxolitinib + Tozasertib (first compound 0.8 µM), 0.344; with Ruxolitinib + Tozasertib (first compound 2.53 µM), 0.313. The relative viability with Ruxolitinib + Tozasertib (first compound 8 µM) is 0.312.

With COR-L23, the relative viability is 0.93 in the experiment with Vismodegib + Lapatinib (first compound 0.08 µM); 0.802 with Vismodegib + Lapatinib (first compound 0.253 µM); 0.901 with Vismodegib + Lapatinib (first compound 0.8 µM); 0.986 with Vismodegib + Lapatinib (first compound 2.53 µM); 1.02 with Vismodegib + Lapatinib (first compound 8 µM); 0.731 with VE-821 + Crizotinib (first compound 0.08 µM). In addition, the relative viability with VE-821 + Crizotinib (first compound 0.253 µM) stood at 0.76; with VE-821 + Crizotinib (first compound 0.8 µM), 0.695; in the experiment with VE-821 + Crizotinib (first compound 2.53 µM) it was 0.726; with VE-821 + Crizotinib (first compound 8 µM), 0.562; with Ruxolitinib + Linsitinib (first compound 0.08 µM) it was 0.919; with Ruxolitinib + Linsitinib (first compound 0.253 µM) it was 0.92. In addition, the relative viability was 0.95 in the experiment with Ruxolitinib + Linsitinib (first compound 0.8 µM); 0.833 in the experiment with Ruxolitinib + Linsitinib (first compound 2.53 µM); 0.671 with Ruxolitinib + Linsitinib (first compound 8 µM); 0.204 with Ruxolitinib + Tozasertib (first compound 0.08 µM); 0.217 with Ruxolitinib + Tozasertib (first compound 0.253 µM); 0.204 with Ruxolitinib + Tozasertib (first compound 0.8 µM). In addition, the figures for the relative viability with Ruxolitinib + Tozasertib (first compound 2.53 µM) and with Ruxolitinib + Tozasertib (first compound 8 µM) were 0.192 and 0.146, respectively.

The values are drawn from the supplement of paper PMC10307832.
